Experimental data taken from PMC11510897 (2024).

System: A5-S3G (DNA, aptamer) TCGGATAAAACCGGGCGGCGTTACACTAGGCG
Test: biolayer interferometry
Conditions: 150 mM NaCl, 2 mM MgCl2; 50 mM Tris-HCl, pH 7.5; tested at 1000 nM in aptasensor

binding: no
SMILES: C=C1[C@@H](O)[C@@H]2O[C@]3(CC[C@H](/C=C/[C@@H](C)[C@@H]4CC(C)=C[C@@]5(O[C@H](C[C@@](C)(O)C(=O)O)CC[C@H]5O)O4)O3)CC[C@H]2O[C@@H]1[C@@H](O)C[C@H](C)[C@H]1O[C@@]2(CCCCO2)CC[C@H]1C
